Key:
Format in all cases: cell-based, human
RSCs [1] = experiment: Evaluation of TGFβ1 response of RSCs (fibrosis, area of tdTomato-positive cells, αSMA)
Procedure: In vivo renal stromal cells are known to cause differentiation into αSMA-positive myofibroblasts and hypertrophy (so-called fibrosis) in response to TGFβ1 stimulation. RSCs were obtained by the methods described in Examples 1, 2 and 3-1 from the EPO-emGFP/GAPDH-tdTomato (GAPDH-tdT) dual knock-in human iPS cell line obtained in Example 4-2 mentioned later. In the method described in Example 1, the RA concentration was set to 3 μM. RSCs on day 4 of culture (D4) were treated with TGFβ1 (0.01 to 10 ng/ml) for 9 days (D13), and the degree of fibrosis was evaluated by determining the ratio of tdTomato-positive cells using image analysis software Image J (NIH). Specifically, a fluorescently taken image was converted to 8 bits for binarization, and the whole area was divided into “area of cells” and “other areas (areas containing no cell)”. The proportion was calculated according to the expression “Area of cells”/“Whole area”.

RSCs [2] = experiment: Screening system for a compound that improves a sustained fibrotic state (area of tdTomato-positive cells); conditions: 3, 10 or 30 μM added on D15, cultured to D24, after 10 ng/ml TGFβ1 D4 to D13
Procedure: In FIG. 15, RSCs on day 4 of culture (D4) were treated with TGFβ1 (10 ng/ml) for 9 days (D13) and then further cultured in a TGFβ1-free medium (D15) for 2 days. SB431542 (3, 10 or 30 μM) was added to the medium of the cells on D15, and the cells were further cultured for 9 days (D24). […] “Cont” depicts a negative control (without SB addition).
RSPs were inoculated at 3000 cells/well to a 384-well plate, and the induction of RSCs was started in STEMdiff APEL2 medium (STEMCELL Technologies Inc., ST-05275). On day 4 of culture (D4), fibrosis was induced by the addition of 10 ng/ml TGFβ1. During the culture period, the culture solution containing TGFβ1 was replaced with a fresh one every 3 days. On day 13 of culture (D13), TGFβ1 was removed from the medium, and culture was further continued for 2 days (D15). The TGF receptor inhibitor SB431542 (SB) was added as a test substance to the medium of the cells on D15, and the cells were further cultured for 9 days (D24). Then, the area of tdTomato-positive cells was determined.

RSPs = experiment: Influence of bFGF, FGF9 and PDGF-BB on differentiation of RSPs into RSCs (number of cells, EPO ELISA)
Procedure: The RSPs obtained in Example 2 were inoculated at 2×10^3 cells/well to a 6-well plate coated with fibronectin, and cultured for 15 days in STEMdiff APEL2 medium (STEMCELL Technologies Inc., ST-05275) to obtain RSCs (Days 55 to 70).
The number of cells and the amount of EPO secreted into the medium which were obtained by adding 40 ng/ml bFGF, 200 ng/ml FGF9 (FUJIFILM Wako Pure Chemical Corp., #AF-100-23), and 10 ng/ml PDGF-BB (PeproTech, Inc., #100-14B) each alone or in combination to a medium were measured under the induction conditions of Example 3-1. EPO in the medium was measured by ELISA.

hNCCs = experiment: Hypoxic response of posteriorly shifted NCCs (hNCCs): EPO secreted into the medium; conditions: hNCCs on Day 18, 100 μM, 1 day after addition
Procedure: EPO-producing cells are known to perform the production and secretion of EPO in response to HIF signals in a hypoxic environment. The hypoxic response of the hNCCs on Day 18 prepared in Example 1-3 was confirmed using two types of compounds that activated HIF signals (FG-2216: Selleck Chemicals #18382 and FG-4592: Selleck Chemicals #S1007, 100 μM each). Results of quantifying the amount of EPO secreted into the medium on 1 day after addition of FG-2216 or FG-4592 are shown in FIG. 3. The secretion of EPO into the medium was increased in response to hypoxic stimulation.

RSCs [3] = experiment: Hypoxia-responsive ability of RSCs to produce EPO (mRNA, immunostaining); conditions: 100 μM
Procedure: The RSPs obtained in Example 2 were inoculated at 2×10^3 cells/well to a 6-well plate coated with fibronectin, and cultured for 15 days in STEMdiff APEL2 medium (STEMCELL Technologies Inc., ST-05275) to obtain RSCs (Days 55 to 70). The hypoxia-responsive ability to produce EPO was confirmed as to the obtained RSCs. EPO-producing cells are known to perform the production and secretion of EPO in response to HIF signals in a hypoxic environment. The RSCs were treated with a compound that activated HIF signals (FG-4592, Selleck Chemicals, #S1007, 100 μM).

[4] = system: kidney organoid (Mini-kidney); experiment: EPO mRNA expression in kidney organoid (Mini-kidney) under hypoxic stimulation; conditions: Mini-kidney IM+RSP (D25), 100 μM
Procedure: RNA was extracted from the kidney organoid on Day 25 from the start of coculture (Mini-kidney, IM+RSP (D25)) obtained in Example 4-3 and a kidney organoid containing no RSP (KiO (D25)), and libraries for transcriptome analysis were prepared using Ion AmpliSeq™ Transcriptome Human Gene Expression Kit (Thermo Fisher Scientific, Inc.: #A26326). The prepared libraries were subjected to sequencing analysis (Ion S5 XL sequencer, Thermo Fisher Scientific, Inc.) using Ion 54™ Chip Kit (Thermo Fisher Scientific, Inc., #A27765) to quantify the expression level of EPO mRNA. The significant expression of EPO mRNA was not seen in any of an iPS cell line, IM, and the kidney organoid containing no RSP (KiO (D25)). By contrast, the significant expression of EPO mRNA was confirmed in the Mini-kidney (IM+RSP (D25)). As a result of confirming the hypoxic response of the Mini-kidney in the same manner as in Example 1-4, the EPO expression level was increased by hypoxic stimulation (100 μM FG-4592) (IM+RSP (D25) +FG4592).

[5] = system: kidney organoid (Mini-kidney); experiment: Renal stromal cell marker mRNA expression in Mini-kidney under hypoxic stimulation; conditions: Mini-kidney IM+RSP (D25), 100 μM
Source text: The mRNA expression levels of renal stromal cell markers (desmin, vimentin, PDGFRβ and CD73) were quantified by the sequencing analysis of the libraries for transcriptomes prepared in Example 4-4. The expression of all the renal stromal cell markers was confirmed in the Mini-kidney (IM+RSP (D25)). As a result of confirming the hypoxic response of the Mini-kidney (IM+RSP (D25)) in the same manner as in Example 1-4, the expression levels of desmin and CD73 were decreased by hypoxic stimulation (100 μM FG-4592) (IM+RSP (D25)+FG4592).

RSCs [6] = experiment: Fibrotic state of RSCs after removal of TGFβ1 from the medium
Procedure: In FIG. 13, RSCs on day 4 of culture (D4) were treated with TGFβ1 (1 ng/ml) for 9 days (D13 TGF) and then further cultured in a TGFβ1-containing medium (D25 TGF+) or a TGFβ1-free medium (D25 TGF−) for 12 days. […] “D25 Cont” depicts a negative control (without TGFβ1 treatment).
In FIG. 14, RSCs on day 4 of culture (D4) were treated with TGFβ1 (10 ng/ml) for 9 days (D13 TGF) and then further cultured in a TGFβ1-containing medium (D25 TGF+) or a TGFβ1-free medium (D25 TGF−) for 12 days. […] “D25 Cont” depicts a negative control (without TGFβ1 treatment).
By exploiting this property of fibrosis of RSCs, a screening system for a compound that improved a sustained fibrotic state was constructed.

fibronectin (FN1) = experiment: Biomarker search: LC/MS analysis of culture supernatant of RSCs with induced fibrosis; conditions: 10 ng/ml TGFβ1 for 9 days
Procedure: RSPs were inoculated at 2×10^6 cells/dish to a 10 cm dish, and the induction of RSCs was started in STEMdiff APEL2 medium (STEMCELL Technologies Inc., ST-05275). On day 7 of culture (D7), 10 ng/ml TGFβ1 was added thereto, and the cells were further cultured for 9 days to induce fibrosis.
The culture supernatant was recovered. After removal of albumin, IgG and IgA, a peptide fragment was obtained by acetone precipitation and trypsin digestion. The amino acid sequence of the peptide fragment was determined by LC/MS analysis.

NC(=O)c1ccc(-c2nc(-c3ccc4c(c3)OCO4)c(-c3ccccn3)[nH]2)cc1 [SB431542, 4-[4-(1,3-benzodioxol-5-yl)-5-(2-pyridinyl)-1H-imidazol-2-yl]-benzamide]
cellular hypertrophy caused by TGFβ1 (RSCs [1]; cotreatment with TGF receptor inhibitor): suppressed | fibrosis (area of tdTomato-positive cells) (RSCs [2]): marked suppression of fibrosis

bFGF: basic fibroblast growth factor (FUJIFILM Wako Pure Chemical Corp.)
proliferation of the cells (RSPs; 40 ng/ml bFGF added to STEMdiff APEL2 medium): promoted

Cc1nc(C(=O)NCC(=O)O)c(O)c2ccc(Oc3ccccc3)cc12 [FG-4592]
secretion of EPO into the medium (hNCCs): increased | expression of EPO in response to hypoxic stimulation (RSCs [3]): found at the mRNA level and the protein level | EPO expression level [4]: increased | expression level of CD73 [5]: decreased | expression level of desmin [5]: decreased

TGFβ1: isoform of transforming growth factor β, fibrosis-inducing substance
cellular hypertrophy, concentration dependence (RSCs [1]; TGFβ1 0.01 to 10 ng/ml for 9 days): caused in a TGFβ1 concentration-dependent manner | differentiation into αSMA-positive myofibroblasts and cellular hypertrophy (RSCs [1]; TGFβ1 0.01 to 10 ng/ml for 9 days (D4 to D13)): found | fibrotic state after removing TGFβ1 from the medium (RSCs [6]; fibrosis induced by 1 ng/ml TGFβ1): restored to non-fibrotic RSCs | fibrotic state after removal of TGFβ1 from the medium (RSCs [6]; fibrosis induced by 10 ng/ml TGFβ1): maintained the fibrotic state | FN1 detected in culture supernatant of treated cells as compared with untreated cells (fibronectin (FN1)): about 10 times

O=C(O)CNC(=O)c1nc(Cl)c2ccccc2c1O [FG-2216]
secretion of EPO into the medium (hNCCs): increased

B1: PDGF-BB: platelet derived growth factor B chain homodimer (PeproTech, Inc., #100-14B) (protein, UniProt P01127 82-190, looked up)
Platelet-derived growth …: SLGSLTIAEPAMIAECKTRTEVFEISRRLIDRTNANFLVWPPCVEVQRCSGCCNNRNVQCRPTQVQLRPVQVRKIEIVRKKPIFKKATVTLEDHLACKCETVAAARPVT
amount of EPO secreted (RSPs; 10 ng/ml PDGF-BB added to STEMdiff APEL2 medium): increased

— patent US20220313733A1, “METHOD FOR PRODUCING RENAL INTERSTITIAL CELL” (Kyoto University, priority 2019, published 2022)
